Source: the NIST ThermoML archive (doi:10.1021/je034227w)
± gives the expanded uncertainty stated by the source.

Settings: Liquid; for mass density: 298.15 K, 101.33 kPa

SMILES | mass density [kg/m3] | Normal boiling temperature [°C]
CO [methanol] | 786.5 ± 5 | 64.52 ± 0.03
CCO [ethanol] | 785.1 ± 5 | 78.31 ± 0.03
